From patent publication EP4471049A1 (Zealand Pharma A/S, priority 2023, dated 2024)
*1 amine or outer side, *2 acyl side, *3 side chain or, on linkers, in order; H or OH if unused. Where a SMILES comes first, the peptide text is derived from it. Bridges are numbered along the chain shown (N, C = ends). [ ]: non-standard residue; d: D form. 2Nal = N[C@@H](Cc1ccc2ccccc2c1)C(=O)O; AEF = NCCOc1ccc(C[C@H](N)C(=O)O)cc1; X1 = O=C(Cc1ccc(CN[*:1])cc1)[*:2]; 3Pal = N[C@@H](Cc1cccnc1)C(=O)O; αMeL = CC(C)C[C@](C)(N)C(=O)O; Dab = NCC[C@H](N)C(=O)O

T1: human IL-23R (Homo sapiens, UniProt Q5VWK5)
T1 sequence (Q5VWK5 22-629): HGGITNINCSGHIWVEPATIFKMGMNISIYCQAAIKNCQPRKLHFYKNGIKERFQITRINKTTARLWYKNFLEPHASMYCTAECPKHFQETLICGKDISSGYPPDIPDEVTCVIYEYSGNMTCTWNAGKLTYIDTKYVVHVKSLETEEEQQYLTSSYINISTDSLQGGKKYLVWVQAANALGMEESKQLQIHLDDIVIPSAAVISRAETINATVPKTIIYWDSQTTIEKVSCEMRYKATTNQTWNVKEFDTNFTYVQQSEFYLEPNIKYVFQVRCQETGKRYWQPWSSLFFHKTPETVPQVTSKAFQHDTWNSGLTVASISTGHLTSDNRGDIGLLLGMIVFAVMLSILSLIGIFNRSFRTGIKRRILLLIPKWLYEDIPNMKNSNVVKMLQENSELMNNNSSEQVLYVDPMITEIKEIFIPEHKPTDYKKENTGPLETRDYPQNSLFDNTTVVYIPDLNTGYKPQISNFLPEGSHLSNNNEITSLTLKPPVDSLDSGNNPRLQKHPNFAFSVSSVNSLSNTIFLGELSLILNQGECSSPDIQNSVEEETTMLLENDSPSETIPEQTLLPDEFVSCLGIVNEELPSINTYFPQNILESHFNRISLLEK

T2: Nluc-IL23R fusion protein (human, UniProt Q5VWK5 22-629)
T2 construct: range 22-629; expressed with a secretion signal in HEK293 cells; used as crude membrane preparation; also called hIL-23R; human IL-23R; not shown: Nanoluc protein from the expression plasmid N1371 (Promega), N-terminal of IL-23R
T2 sequence (looked up): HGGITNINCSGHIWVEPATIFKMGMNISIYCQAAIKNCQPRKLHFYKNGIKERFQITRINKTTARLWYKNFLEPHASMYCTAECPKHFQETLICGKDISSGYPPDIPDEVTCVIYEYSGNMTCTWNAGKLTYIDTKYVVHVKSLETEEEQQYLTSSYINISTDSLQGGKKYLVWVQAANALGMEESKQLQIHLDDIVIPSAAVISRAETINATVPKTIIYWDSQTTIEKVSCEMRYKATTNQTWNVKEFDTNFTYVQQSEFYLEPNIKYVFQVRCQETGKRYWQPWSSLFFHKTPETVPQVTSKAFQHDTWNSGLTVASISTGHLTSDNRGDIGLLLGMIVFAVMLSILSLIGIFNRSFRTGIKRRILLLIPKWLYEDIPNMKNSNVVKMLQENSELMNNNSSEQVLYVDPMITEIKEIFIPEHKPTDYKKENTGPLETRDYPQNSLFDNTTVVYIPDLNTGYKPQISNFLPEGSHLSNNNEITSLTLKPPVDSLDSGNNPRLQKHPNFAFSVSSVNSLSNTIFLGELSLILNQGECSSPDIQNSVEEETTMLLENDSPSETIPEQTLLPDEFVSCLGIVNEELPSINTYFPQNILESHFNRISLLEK

T3: human IL-23R endogenously expressed on DB cells (human, UniProt Q5VWK5 24-629)
T3 sequence (looked up): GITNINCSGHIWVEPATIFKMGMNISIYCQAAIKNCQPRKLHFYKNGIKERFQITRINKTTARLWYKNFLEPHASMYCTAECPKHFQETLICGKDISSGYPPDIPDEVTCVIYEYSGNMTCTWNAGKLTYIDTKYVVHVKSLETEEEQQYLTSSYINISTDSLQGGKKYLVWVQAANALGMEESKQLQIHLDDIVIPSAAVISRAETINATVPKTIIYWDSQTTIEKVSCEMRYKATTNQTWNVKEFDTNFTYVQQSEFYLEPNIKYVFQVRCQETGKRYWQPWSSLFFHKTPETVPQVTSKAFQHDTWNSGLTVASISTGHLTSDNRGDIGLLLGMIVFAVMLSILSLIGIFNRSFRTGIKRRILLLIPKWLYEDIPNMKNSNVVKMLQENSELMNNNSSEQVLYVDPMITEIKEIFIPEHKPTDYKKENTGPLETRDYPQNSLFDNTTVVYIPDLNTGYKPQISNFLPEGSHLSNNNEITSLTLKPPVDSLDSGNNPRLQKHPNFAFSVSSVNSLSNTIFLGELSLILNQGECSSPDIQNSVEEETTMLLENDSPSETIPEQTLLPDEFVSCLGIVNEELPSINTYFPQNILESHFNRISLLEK


Legend:
human IL-23R = molecular target: T1, human IL-23R; assay: biochemical
Summary of the method: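 BRET displacement of a TAMRA-labelled reference compound from N-terminal Nanoluc-IL-23R fusion protein in membranes from stably transfected HEK293 cells. Incubation 2 h at room temperature, then Nanoluc substrate was added and the TAMRA/Nanoluc ratio read. IC50 and maximal displacement came from 4-parameter logistic fits.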

[1] = Peptide stability in simulated intestinal fluid (SIF); format: in vitro ADME; conditions: pig, simulated intestinal fluid (SIF) with porcine pancreatin, 37 °C, pH 6.8, porcine pancreatin 10 g/L, 10 µM; for remaining at 4 h, 10 µM: read-out: SIF (% remaining 4 h)
Summary of the method: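 Peptides were incubated at 37 °C with gentle shaking in pH 6.8 potassium phosphate SIF containing porcine pancreatin (10 g/L). Supernatants were analysed by LC-HRMS. Percent remaining at each timepoint, including 4 h, was calculated relative to time zero from absolute peak areas.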

[2] = Peptide stability in simulated gastric fluid (SGF); format: in vitro ADME; conditions: pig, simulated gastric fluid (SGF) with porcine pepsin, 37 °C, pH 1.2, porcine pepsin 3.2 g/L
Method: SGF was prepared by dissolving sodium chloride (0.2 g) in 50 mL of water. A volume of 0.7 mL of 10 M HCl was added to adjust the pH of the solution to 1.2 and the volume made up to 100 mL with water. […] SIF was prepared by dissolving monobasic potassium phosphate (0.68 g) in 50 mL of water and adjusting the pH to 6.8 with 1 M NaOH. The volume was subsequently made up to 100 mL with water. 200 mg porcine pancreatin (P1625, Sigma Aldrich) was gently dissolved into 20 mL preheated (37 °C) solution (10 g/L) immediately prior to the incubation.
The incubation was performed at 37 °C with gentle shaking. […] After the last timepoint, the sampling plate was mixed for 10 min on a shaking table and centrifuged 10 min at 2200 g. 70 µL resulting supernatant was diluted with 150 µL water, mixed and centrifugated before analysis by liquid chromatography high resolution mass spectrometry. […] Percent remaining at each timepoint was calculated relative to timepoint zero based on absolute peak areas.
Compounds with a SGF stability (after 4 h) above 70% are considered highly SGF stable. […] Table 3-4: SGF data

[3] = tested on: porcine pepsin (P7125, Sigma Aldrich); assay: SGF: sodium chloride, HCl, pH 1.2, with porcine pepsin (3.2 g/L); conditions: 37 °C, up to 4 hours
[4] = molecular target: T2, Nluc-IL23R fusion protein; assay: BRET competition vs TAMRA-labelled peptide, Nluc-IL23R membranes
[5] = molecular target: T3, human IL-23R endogenously expressed on …; assay: cell-based or functional assay

| Molecule | not cleaved [3] | other results |
| --- | --- | --- |
| CNC(=O)[C@H](Cc1cccnc1)NC(=O)[C@](C)(CO)NC(=O)[C@@H]1CCC(=O)NCc2ccc(cc2)CC(=O)N[C@@H](CO)C(=O)N[C@H]2CCC(=O)NCC[C@H](NC(=O)[C@H](CCC(N)=O)NC(=O)[C@H](Cc3c[nH]c4ccccc34)NC2=O)C(=O)N[C@@H](Cc2ccc(OCCN)cc2)C(=O)N[C@@H](Cc2ccc3ccccc3c2)C(=O)N[C@@](C)(CC(C)C)C(=O)N1 [Compound 39, [4-Aminomethyl-phenylacetyl](1c)*SE(2c)WQ[Dab](2c)[Y(2-aminoethoxy)][2-Nal][2-Me-Leu]E(1c)[2-Me-Ser][3-(3-Pyridyl)-Ala]-[NHMe]] | – | Emax (human IL-23R; read-out: % displacement (hIL-23R binding)): 99%; remaining at 1 h, 10 µM ([1]; 1 h): 100%; remaining at 1 h, 10 µM [2]: 99% |
| CNC(=O)[C@H](Cc1cccnc1)NC(=O)[C@H](CO)NC(=O)[C@@H]1CCC(=O)NCc2ccc(cc2)CC(=O)N[C@@H](C)C(=O)N[C@H]2CCC(=O)NCC[C@H](NC(=O)[C@H](CCC(N)=O)NC(=O)[C@H](Cc3c[nH]c4ccccc34)NC2=O)C(=O)N[C@@H](Cc2ccc(OCCN)cc2)C(=O)N[C@@H](Cc2ccc3ccccc3c2)C(=O)N[C@@](C)(CC(C)C)C(=O)N1 [Compound 40, [4-Aminomethyl-phenylacetyl](1c)*AE(2c)WQ[Dab](2c)[Y(2-aminoethoxy)][2-Nal][2-Me-Leu]E(1c)S[3-(3-Pyridyl)-Ala]-[NHMe]] ([X1]AEWQ[Dab][AEF][2Nal][αMeL]ES[3Pal]-NHMe; lactam 3-6, N-10) | – | % displacement (hIL-23R binding) (human IL-23R): 100%; IC50 (human IL-23R): 0.019 nM; remaining at 4 h, 10 µM [1]: 80%; remaining at 1 h, 10 µM [2]: 89% |
| CNC(=O)[C@H](Cc1cccnc1)NC(=O)[C@H](CCN)NC(=O)[C@@H]1CCC(=O)NCc2ccc(cc2)CC(=O)N[C@@H](C)C(=O)N[C@H]2CCC(=O)NCC[C@H](NC(=O)[C@H](CCC(N)=O)NC(=O)[C@H](Cc3c[nH]c4ccccc34)NC2=O)C(=O)N[C@@H](Cc2c[nH]c3ncccc23)C(=O)N[C@@H](Cc2ccc3ccccc3c2)C(=O)NC(C)(C)C(=O)N1 [Compound 43, [4-Aminomethyl-phenylacetyl](1c)*AE(2c)WQ[Dab](2c)[7-AzaTrp][2-Nal][Aib]E(1c)[Dab][3-(3-Pyridyl)-Ala]-[NHMe]] | – | % displacement (hIL-23R binding) (human IL-23R): 101%; IC50 (human IL-23R): 0.048 nM; remaining at 4 h, 10 µM [1]: 92%; remaining at 4 h, 10 µM ([2]; 4 h): 98% |
| [4-Aminomethyl-phenylacetyl](1c)*FE(2c)WQ[Dab](2c)[Y(2-aminoethoxy)][2-Nal][2-Me-Leu]E(1c)[Dab][3-(3-Pyridyl)-Ala] | 101% remaining after 4 h | – |
| [4-Aminomethyl-phenylacetyl](1c)*SE(2c)WQ[Dab](2c)[Y(2-aminoethoxy)][2-Nal][2-Me-Leu]E(1c)H[3-(3-Pyridyl)-Ala] | 95% remaining after 4 h | – |
| [4-Aminomethyl-phenylacetyl](1c)*SE(2c)WQ[Dab](2c)[Y(2-aminoethoxy)][2-Nal][2-Me-Leu]E(1c)[Dab]-[NH-(4-(pyridin-3-yl)butanyl)] | 108% remaining after 4 h | – |
| [4-Aminomethyl-phenylacetyl](1c)*SE(2c)WQ[Dab](2c)[Y(2-aminoethoxy)][2-Nal][2-Me-Leu]E(1c)[Dab][{d}3-(3-Pyridyl)-Ala]-[NH2] | 105% remaining after 4 h | – |
| [4-Aminomethyl-phenylacetyl](1c)*SE(2c)WQ[Dab](2c)[Y(2-aminoethoxy)][2-Nal][2-Me-Leu]E(1c)[hSer][3-(3-Pyridyl)-Ala] | 103% remaining after 4 h | – |
| [4-Aminomethyl-phenylacetyl](1c)*SE(2c)WQ[Dab](2c)[Y(2-aminoethoxy)][2-Nal][2-Me-Leu]E(1c)[{d}S][3-(3-Pyridyl)-Ala] | 91% remaining after 4 h | – |
| [4-Aminomethyl-phenylacetyl](1c)*SE(2c)W[Q(pyrrolidin)][Dab](2c)[Y(2-aminoethoxy)][2-Nal][2-Me-Leu]E(1c)[Dab][3-(3-Pyridyl)-Ala] | 96% remaining after 4 h | – |
| [Ac]-[Abu](16i)QTWQC(16i)[Y(2-aminoethoxy)]W[2-Me-Lys]ENG-[NH2] | 100% remaining after 4 h | – |
| H-ECWLCYYRNCNCM-NH2 (linker 5-10, 2-12 via 1,3‑dithio‑propan‑2‑one, compound from Heinis et al., 2020, synthesised for comparison) [I4 (isomer 3)] | – | % displacement (hIL-23R binding) [4]: 84%; hIL-23 (pSTAT3) antagonist % inhibition [5]: 23% |

The next lines start with results.

| not cleaved [3] | Molecule | other results |
| --- | --- | --- |
| 99% remaining after 4 h | H-EC(4a)WLC(5a)YYRNC(5a)NC(4a)M-[NH2] | – |
| 94% remaining after 4 h | H-GC(1a)TC(2a)WEC(2a)WWLC(1a)S-[NH2] | – |
| 93% remaining after 4 h | [4-Aminomethyl-phenylacetyl](1c)*SE(2c)WQ[Dab](2c)[Y(2-aminoethoxy)][2-Nal][2-Me-Leu]E(1c)Q[3-(3-Pyridyl)-Ala] | – |
| 99% remaining after 4 h | [4-Aminomethyl-phenylacetyl](1c)*SE(2c)WQ[Dab](2c)[Y(2-aminoethoxy)][2-Nal][2-Me-Leu]E(1c)S[3-(3-Pyridyl)-Ala] | – |
| 96% remaining after 4 h | [4-Aminomethyl-phenylacetyl](1c)*SE(2c)WQ[Dab](2c)[Y(2-aminoethoxy)][2-Nal][2-Me-Leu]E(1c)[2-Me-Ser][3-(3-Pyridyl)-Ala] | – |
| 93% remaining after 4 h | [4-Aminomethyl-phenylacetyl](1c)*SE(2c)WQ[Dab](2c)[Y(2-aminoethoxy)][2-Nal][2-Me-Leu]E(1c)[Dab]H[3-(3-Pyridyl)-Ala]-[NH2] | – |
| 103% remaining after 4 h | [4-Aminomethyl-phenylacetyl](1c)*SE(2c)WQ[Dab](2c)[Y(2-aminoethoxy)][2-Nal][2-Me-Leu]E(1c)[Dab][N-Me-3-(3-Pyridyl)-Ala]-[NH2] | – |
| 90% remaining after 4 h | [4-Aminomethyl-phenylacetyl](1c)*SE(2c)WQ[Dab](2c)[Y(2-aminoethoxy)][2-Nal][2-Me-Leu]E(1c)[Nle][3-(3-Pyridyl)-Ala] | – |
| 102% remaining after 4 h | [4-Aminomethyl-phenylacetyl](1c)*SE(2c)WQ[Dab](2c)[Y(2-aminoethoxy)][2-Nal][2-Me-Leu]E(1c)[Ser(OMe)][3-(3-Pyridyl)-Ala] | – |
| 90% remaining after 4 h | [4-Aminomethyl-phenylacetyl](1c)*SE(2c)W[K(Ac)][Dab](2c)[Y(2-aminoethoxy)][2-Nal][2-Me-Leu]E(1c)[Dab][3-(3-Pyridyl)-Ala] | – |
